Data reported in US20250034125A1, “COMPOUNDS AND USES THEREOF” (JANSSEN PHARMACEUTICA NV, priority 2019, published 2025).

Key:
SCD1 = biological target: T1, SCD1 (Homo sapiens, UniProt O00767); assay: Growth inhibition of yeast (ole1Δ) expressing human SCD1 as the sole desaturase; format: cell-based; conditions: yeast strain with SCD1 plasmid, OD600 growth read at 40 h; read-out: SCD1 IC50
T1 construct: host or cells: Saccharomyces cerevisiae ole1Δ strain (W303 pdr1Δ pdr3Δ background), plasmid pRS316, TDH3 promoter
T1 sequence (O00767 1-359): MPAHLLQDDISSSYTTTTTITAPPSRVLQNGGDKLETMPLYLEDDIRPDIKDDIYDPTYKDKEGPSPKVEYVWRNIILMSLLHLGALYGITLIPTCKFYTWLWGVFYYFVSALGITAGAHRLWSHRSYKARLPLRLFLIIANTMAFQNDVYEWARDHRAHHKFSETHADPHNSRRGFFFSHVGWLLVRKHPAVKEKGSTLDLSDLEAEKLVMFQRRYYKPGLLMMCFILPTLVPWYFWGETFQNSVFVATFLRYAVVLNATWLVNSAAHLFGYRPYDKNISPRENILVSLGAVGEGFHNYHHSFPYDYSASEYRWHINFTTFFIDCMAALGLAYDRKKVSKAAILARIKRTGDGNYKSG

SCD5 = biological target: T2, SCD5 (Homo sapiens, UniProt Q86SK9); assay: Growth inhibition of yeast (ole1Δ) expressing human SCD5 as the sole desaturase; format: cell-based; conditions: yeast strain with SCD5 plasmid, OD600 growth read at 40 h; read-out: SCD5 IC50
T2 construct: host or cells: Saccharomyces cerevisiae ole1Δ strain (W303 pdr1Δ pdr3Δ background), plasmid pRS316, TDH3 promoter
T2 sequence (Q86SK9 1-330): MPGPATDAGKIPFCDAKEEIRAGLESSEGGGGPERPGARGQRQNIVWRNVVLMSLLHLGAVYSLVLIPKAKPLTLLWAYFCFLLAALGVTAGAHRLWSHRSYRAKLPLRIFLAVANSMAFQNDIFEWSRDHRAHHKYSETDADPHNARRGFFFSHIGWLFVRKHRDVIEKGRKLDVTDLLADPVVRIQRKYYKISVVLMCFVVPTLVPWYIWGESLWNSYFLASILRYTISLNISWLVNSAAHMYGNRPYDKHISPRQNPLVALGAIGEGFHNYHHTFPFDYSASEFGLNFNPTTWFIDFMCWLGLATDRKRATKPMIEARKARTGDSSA

SMILES | IC50 (SCD1) | IC50 (SCD5)
Cn1nc(NC(=O)N2CC[C@H](Oc3ccc(F)c(F)c3)C2)ccc1=O [Compound 29, (3S)-3-(3,4-difluorophenoxy)-N-(1-methyl-6-oxo-1,6-dihydropyridazin-3-yl)pyrrolidine-1-carboxamide] | 420 nM | 2800 nM
Cn1nc(NC(=O)N2CCC(OCc3cccc(F)c3)CC2)ccc1=O [Compound 96, 4-(3-fluorobenzyloxy)-N-(1-methyl-6-oxo-1,6-dihydropyridazin-3-yl)piperidine-1-carboxamide] | > 45000 nM | 26400 nM
Cn1nc(-c2nc(N3CCC(Cc4cc(Cl)cc(C#N)c4)CC3)no2)ccc1=O [Compound 117, 3-chloro-5-((1-(5-(1-methyl-6-oxo-1,6-dihydropyridazin-3-yl)-1,2,4-oxadiazol-3-yl)piperidin-4-yl)methyl)benzonitrile] | 2000 nM | 30 nM
Cn1nc(NC(=O)N2CCC(Oc3ccccc3)CC2)ccc1=O [Compound 67, N-(1-methyl-6-oxo-1,6-dihydropyridazin-3-yl)-4-phenoxypiperidine-1-carboxamide] | 3980 nM | 2100 nM
Cn1nc(NC(=O)N2CCC(Cc3ccc(F)c(C#N)c3)CC2)ccc1=O [Compound 58, 4-(3-cyano-4-fluorobenzyl)-N-(1-methyl-6-oxo-1,6-dihydropyridazin-3-yl)piperidine-1-carboxamide] | > 45000 nM | 10400 nM
O=c1ccc(-c2noc(N3CCC(Cc4cc(F)cc(F)c4)CC3)n2)c[nH]1 [Compound 2] | > 45000 nM | > 45000 nM
Cn1nc(NC(=O)N2CCC=C(c3ccc(Cl)cc3)CC2)ccc1=O [Compound 133, 4-(4-chlorophenyl)-N-(1-methyl-6-oxo-1,6-dihydropyridazin-3-yl)-2,3,6,7-tetrahydro-1H-azepine-1-carboxamide] | > 45000 nM | > 45000 nM

The remaining compounds from weak to strong by IC50 (SCD5), led by results:

IC50 (SCD1) | IC50 (SCD5) | SMILES
> 45000 nM | 7930 nM | Cn1nc(OC(=O)N2CCC(Oc3ccc(F)c(F)c3)CC2)ccc1=O [Compound 107]
17200 nM | 6370 nM | Cn1nc(CC(=O)N2CCC(Cc3cc(F)cc(F)c3)CC2)ccc1=O [Compound 38, 6-(2-(4-(3,5-difluorobenzyl)piperidin-1-yl)-2-oxoethyl)-2-methylpyridazin-3(2H)-one]
10000 nM | 3000 nM | Cn1cc(-c2noc(N3CCC(Cc4cc(F)cc(F)c4)CC3)n2)ccc1=O [Compound 21, 5-(5-(4-(3,5-difluorobenzyl)piperidin-1-yl)-1,2,4-oxadiazol-3-yl)-1-methylpyridin-2(1H)-one]
2590 nM | 950 nM | Cn1nc(NC(=O)N2CC(Cc3cccc(Cl)c3)C2)ccc1=O [Compound 22, 3-(3-chlorobenzyl)-N-(1-methyl-6-oxo-1,6-dihydropyridazin-3-yl)azetidine-1-carboxamide]
200 nM | 200 nM | Cc1cc(NC(=O)N2CCC(Oc3ccc(F)c(F)c3)CC2)nn(C)c1=O [Compound 127]
26000 nM | 140 nM | Cn1nc(-c2cnc(N3CCC(Cc4cc(F)cc(F)c4)CC3)o2)ccc1=O [Compound 124, 6-(2-(4-(3,5-difluorobenzyl)piperidin-1-yl)oxazol-5-yl)-2-methylpyridazin-3(2H)-one]
390 nM | 20 nM | Cn1nc(NC(=O)N2CCC(Cc3cc(F)c(F)c(F)c3)CC2)ccc1=O [Compound 62, N-(1-methyl-6-oxo-1,6-dihydropyridazin-3-yl)-4-(3,4,5-trifluorobenzyl)piperidine-1-carboxamide]
50 nM | 10 nM | Cn1nc(NC(=O)N2CCC(Cc3cc(F)cc(F)c3Cl)CC2)ccc1=O [Compound 64, 4-(2-chloro-3,5-difluorobenzyl)-N-(1-methyl-6-oxo-1,6-dihydropyridazin-3-yl)piperidine-1-carboxamide]
– | 10 nM | Cn1nc(-c2nc(N3CCC(Cc4cccc(F)c4)CC3)no2)ccc1=O [Compound 114, 6-(3-(4-(3-fluorobenzyl)piperidin-1-yl)-1,2,4-oxadiazol-5-yl)-2-methylpyridazin-3(2H)-one]
